The assay has as its system B16F10 cells. The assay is described as follows: Measurement of melanin production. It counts as cell-based, murine. To be noted: B16F10, 200 nM, single treatment. On the procedure:
B16F10 are seeded in 24-well plates at the density of 8×10^4 cells/well and incubated for 24 hours at 37° C. with 5% CO2 atmosphere. After removing the used cell medium, the cells are treated with fresh cell culture medium (control group), 200 nM α-MSH (α-MSH group), combination of 200 nM α-MSH and various concentrations of palmitoyl tetrapeptide-20 conjugated nanosilver particle (α-MSH+sample group), and various concentrations of palmitoyl tetrapeptide-20 conjugated nanosilver particle (sample group), for 24 hours. After treatment, the treated solution in the well is removed with further incubation with fresh cell culture medium for 24 hours.
The cells are washed twice with PBS. The cells are transferred into a 1.5 mL microtube and centrifuged at 10,000 rpm for 5 minutes to obtain cell pellets. Add 100 μL of solution (1 N NaOH containing 10% DMSO) to the pellet for 60 minutes at 80° C. to dissolve intracellular melanin. Extract 80 μL of dissolved melanin and place in 96-well plates, and melanin contents of control group and treatment group are determined by measuring the absorbance at 405 nm. The assay is repeated for three independent experiments. The equation for calculating melanin content is described as following: Total melanin content (%)=(A405 nm treatment group/A405 nm control group)×100%.

For “α-melanocyte stimulating hormone [α-MSH]”, the “induction of melanin synthesis” value is recorded as “effectively induce melanin synthesis”.

(Values after patent US20230077199A1, “PALMITOYL TETRAPEPTIDE-20 CONJUGATED NANOSILVER PARTICLE AND USE THEREOF” (priority 2021, published 2023).)
